Data published in patent publication US7585855B2, “Bengamides with a substituted caprolactam cycle, method for the preparation thereof, compositions containing them and use thereof” (Aventis Pharma SA, priority 2004, dated 2009).

Test system: Hep-G2 cells
Assay: Inhibition of cell proliferation of Hep-G2 cells (intracellular ATP, CellTiterGlo)
Assay type: cell-based
Settings: Homo sapiens, HepG2, 72 hours incubation, ATP content, read-out: IC 50 (μM)/HEP G2
Method: The antiproliferative activity of product 3 was determined by measuring the inhibition of cell proliferation of Hep-G2 cells. The cells are subcultured in a cell culture medium at a concentration of 1000 cells per well, and incubated for 4 hours at 37° C. and 5% CO2.
Medium used for the Hep-G2 cell culture: Dubelcco's modified Eagle's medium/Ham mixture F12 (Gibco); NEAA (10%; nonessential amino acids, Gibco); sodium pyruvate (1%, Gibco); L-glutamine (1%, Gibco); fetal calf serum (5%; PAA).
After 4 hours, the test products dissolved in a DMSO/cell culture medium mixture are added at various concentrations and the resulting mixtures are incubated for 72 hours at 37° C. and 5% CO2. The intracellular ATP content was measured using the CellTiterGlo test reagent (Promega).

| IC50 [µM] | SMILES |
| --- | --- |
| 7 | CO[C@@H](C(=O)N[C@H]1CCCCNC1=O)[C@H](O)[C@@H](O)[C@H](O)/C=C/C(C)C [Bengamide E] |
| 0.02 | CCC(C)/C=C/[C@@H](O)[C@H](O)[C@@H](O)[C@@H](OC)C(=O)N[C@H]1CCCCN(Cc2ccccc2)C1=O (stereo partly drawn) [Example 3, N-[(S)-1-(4-benzyl)-2-oxoperhydroazepin-3-yl]-(E)-(2R,3R,4S,5R)-3,4,5-trihydroxy-2-methoxy-8-methyldec-6-enamide] |
